Assay results reported in article PMC9728343, “Characterization of CYP125A13, the First Steroid C-27 Monooxygenase from Streptomyces peucetius ATCC27952” (Journal of Microbiology and Biotechnology, 2020).

Experiments:
[1] = molecular target: T1, CYP125A13 (Streptomyces peucetius, UniProt Q70AR4); assay: UV-Vis spectral titration (type I shift), tight-binding quadratic fit; no product formation detected
T1 construct: gene cyp0266
T1 sequence (Q70AR4 1-413): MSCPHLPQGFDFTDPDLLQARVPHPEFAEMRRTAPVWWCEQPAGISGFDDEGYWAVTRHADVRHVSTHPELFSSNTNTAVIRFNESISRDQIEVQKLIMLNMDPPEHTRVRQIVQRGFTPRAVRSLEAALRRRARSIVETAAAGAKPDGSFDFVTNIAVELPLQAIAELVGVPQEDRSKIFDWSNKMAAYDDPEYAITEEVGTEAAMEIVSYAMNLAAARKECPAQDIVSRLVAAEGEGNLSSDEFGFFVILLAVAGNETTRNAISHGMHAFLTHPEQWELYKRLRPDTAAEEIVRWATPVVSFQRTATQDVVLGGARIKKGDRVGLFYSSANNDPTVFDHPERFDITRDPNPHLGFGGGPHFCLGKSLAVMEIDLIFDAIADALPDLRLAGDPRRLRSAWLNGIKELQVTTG

[2] = molecular target: T1, CYP125A13; assay: UV-Vis spectral titration (type I shift), tight-binding quadratic fit; also turnover to 27-hydroxycholesterol with PDX/PDR (Km […])

Compound: CC(C)CCC[C@@H](C)[C@H]1CC[C@H]2[C@@H]3CCC4=CC(=O)CC[C@]4(C)[C@H]3CC[C@]12C [4-cholesten-3-one]
- Kd [1]: 59.2 ± 3.9 µM

Compound: CC(C)CCC[C@@H](C)[C@H]1CC[C@H]2[C@@H]3CC=C4C[C@@H](O)CC[C@]4(C)[C@H]3CC[C@]12C [cholesterol]
- Kd [2]: 56.9 ± 11.3 µM
